Source: patent US12077501B2, “Compounds and compositions for intracellular delivery of agents” (ModernaTX, Inc., priority 2017, dated 2024)

How the values were obtained:
hEPO expression [1] = assay: hEPO expression in CD-1 mice compared with MC3; assay type: in vivo; conditions: intravenous, 0.5 mpk, Table 7e
From the text: (§1) In contrast, hEPO expression in rats induced by administration of a nanoparticle composition including a compound according to one of formulae (I), (Ia1)-(Ia6), (Ib), (II), (IIa), (III), and (IIIa) was substantially […] than that measured for MC3. […] Tables 7c and 7d show additional protein expressions and clearance data from compositions with various compounds disclosed herein as compared to with MC3. Tables 7e, 7f and 7g show hEPO expression data in CD-1 mice at a dose of 0.5 mpk.

[2] = pKa of nanoparticle compositions; assay type: physicochemical
[3] = Particle size and polydispersity index of nanoparticle compositions (Zetasizer Nano ZS); assay type: physicochemical
Protocol: A Zetasizer Nano ZS (Malvem Instruments Ltd, Malvem, Worcestershire, UK) can be used to determine the particle size, the polydispersity index (PDI) and the zeta potential of the nanoparticle compositions in 1×PBS in determining particle size and 15 mM PBS in determining zeta potential.

[4] = Encapsulation efficiency of RNA (QUANT-IT RIBOGREEN RNA assay); assay type: physicochemical
Protocol: For nanoparticle compositions including an RNA, a QUANT-IT™ RIBOGREEN® RNA assay (Invitrogen Corporation Carlsbad, CA) can be used to evaluate the encapsulation of an RNA by the nanoparticle composition. The samples are diluted to a concentration of approximately 5 μg/mL in a TE buffer solution (10 mM Tris-HCl, 1 mM EDTA, pH 7.5). 50 μL of the diluted samples are transferred to a polystyrene 96 well plate and either 50 μL of TE buffer or 50 μL of a 2% Triton X-100 solution is added to the wells. The plate is incubated at a temperature of 37° C. for 15 minutes. The RIBOGREEN® reagent is diluted 1:100 in TE buffer, and 100 μL of this solution is added to each well. The fluorescence intensity can be measured using a fluorescence plate reader (Wallac Victor 1420 Multilablel Counter; Perkin Elmer, Waltham, MA) at an excitation wavelength of, for example, about 480 nm and an emission wavelength of, for example, about 520 nm. The fluorescence values of the reagent blank are subtracted from that of each of the samples and the percentage of free RNA is determined by dividing the fluorescence intensity of the intact sample (without addition of Triton X-100) by the fluorescence value of the disrupted sample (caused by the addition of Triton X-100).

[5] = Lipid purity change after storage in EtOH for 96 h at 25 or 37 °C; assay type: physicochemical
Protocol: Nanoparticle compositions including a therapeutic and/or prophylactic agent can be optimized according to the selection of a compound according to one of formulae (I), (Ia1)-(Ia10), (Ib), (Ic), (Id), (Id1)-(Id10), (Ie), (Ie1)-(Ie6), (II), (IIa), (III), and (IIIa), the selection of additional lipids, the amount of each lipid in the lipid component, and the wt:wt ratio of the lipid component to the therapeutic and/or prophylactic agent, as described herein. Initial studies were performed to compare the delivery efficiency of nanoparticle compositions including various compounds according to one of formulae (I), (Ia1)-(Ia10), (Ib), (Ic), (Id), (Id1)-(Id10), (Ie), (Ie1)-(Ie6), (II), (IIa), (III), and (IIIa). The cationic lipid MC3 is a current standard in the art. Also determined was the stability of nanoparticles of the disclosure, i.e., the purity after storage in EtOH for 96h at 25° C. or 37° C. (Table Id).

[6] = Lipid clearance: % dose remaining in liver of CD-1 mice; assay type: in vivo; conditions: intravenous, 0.5 mg/kg, CD-1 mouse, Table 8a
From the text: as §1

hEPO expression [7] = assay: hEPO (miR126 + miR142) mRNA expression, Tables 8b-8e; assay type: in vivo; conditions: Table 8b
[8] = Table 1c, nanoparticle compositions
[9] = Table 1d, Formulated with lipid:Chol:DOPE:PEG 1 40:38.5:20:1.5

PDI [3, 8] | Size (nm) [3, 8] [nm] | EE (%) [4, 8] [%] | pKa ([2]; Table 1c) | % Dose Remaining 24 hr [6] [%] | Structure (SMILES) | AUC (p/s*h) CD-1 mice 0.5 mpk (hEPO expression [1]) [p/s*h] | other results
– | – | – | – | – | CCCCCCCCCN(CCCCCCCCC)CCN(CCCCCCCCC)CC(=O)N1CCN(C(=O)CN(CCCCCCCCC)CCCC(=O)OCCCCC)CC1 [Compound 45, Pentyl 4-((2-(4-(N-(2-(dinonylamino)ethyl)-N-nonylglycyl)piperazin-1-yl)-2-oxoethyl)(nonyl)amino)butanoate] | 6.98E+07 | –
– | – | – | – | – | CCCCCCCCCN(CCCCCCCCC)CCC1CCN(C(=O)CN(CCCCCCCCC)CCN(CCCCCCCCC)CCCCCCCCC)CC1 [Compound 49, 2-((2-(Dinonylamino)ethyl)(nonyl)amino)-1-(4-(2-(dinonylamino)ethyl)piperidin-1-yl)ethan-1-one] | 1.59E+08 | –
– | – | – | – | – | CCCCCCCCCN(CCCCCCCCC)CCC(=O)N1CCN(C(=O)CCN(CCCCCCCCC)CCN(CCCCCCCCC)CCCCCCCCC)CC1 [Compound 52, 3-(Dinonylamino)-1-(4-(3-((2-(dinonylamino)ethyl)(nonyl)amino)propanoyl)piperazin-1-yl)propan-1-one] | 7.78E+07 | –
– | – | – | – | – | CCCCCCCCCN(CCCCCCCCC)CCN(CCCCCCCCC)CC(=O)N1CCN(C(=O)CN(CCCCCCCCC)CCCOC(=O)CCCCC)CC1 [Compound 56, 3-((2-(4-(N-(2-(Dinonylamino)ethyl)-N-nonylglycyl)piperazin-1-yl)-2-oxoethyl)(nonyl)amino)propyl hexanoate] | 4.52E+07 | pKa ([2]; Table 1b): 6.94
– | – | – | – | – | CCCCCCCCCN(CCCCC(=O)OCCCC)CCC1CCN(C(=O)CN(CCCCCCCCC)CCN(CCCCCCCCC)CCCCCCCCC)CC1 [Compound 60, Butyl 5-((2-(1-(N-(2-(dinonylamino)ethyl)-N-nonylglycyl)piperidin-4-yl)ethyl)(nonyl)amino)pentanoate] | 4.86E+07 | pKa ([2]; Table 1b): 6.66
– | – | – | – | – | CCCCCCCCCN(CCCOC(=O)CCCCC)CCC1CCN(C(=O)CN(CCCCCCCCC)CCN(CCCCCCCCC)CCCCCCCCC)CC1 [Compound 61, 3-((2-(1-(N-(2-(Dinonylamino)ethyl)-N-nonylglycyl)piperidin-4-yl)ethyl)(nonyl)amino)propyl hexanoate] | 6.29E+07 | pKa ([2]; Table 1b): 6.61
– | – | – | – | – | CCCCCCCCCN(CCCC(=O)OCCCCC)CCN(CCCCCCCCC)CC(=O)N1CCN(C(=O)CN(CCCCCCCCC)CCCC(=O)OCCCCC)CC1 [Compound 71, Pentyl 4-(nonyl(2-(4-(N-nonyl-N-(2-(nonyl(4-oxo-4-(pentyloxy)butyl)amino)ethyl)glycyl)piperazin-1-yl)-2-oxoethyl)amino)butanoate] | 2.48E+07 | pKa ([2]; Table 1b): 6.44
0.20 | 80.1 | 97.6 | 6.94 | 0.05 | CCCCCCCCCCCCCCN(CCCOC(=O)CCCCCCCCC)CC(=O)N1CCN(C(=O)CN(CCCCCCCCC)CCN(CCCCCCCCC)CCCCCCCCC)CC1 [Compound 89, 3-((2-(4-(N-(2-(Dinonylamino)ethyl)-N-nonylglycyl)piperazin-1-yl)-2-oxoethyl)(tetradecyl)amino)propyl decanoate] | 1.36E+08 | Lipid % change purity in EtOH, 25° C., 96 h [5]: 2.3%; Lipid % change purity in EtOH, 37° C., 96 h [5]: 3.9%
0.19 | 81.5 | 98.4 | 6.83 | 3.93 | CCCCCCCCCCCCCCN(CCCCCCCC(=O)OCCCCC)CC(=O)N1CCN(C(=O)CN(CCCCCCCCC)CCN(CCCCCCCCC)CCCCCCCCC)CC1 [Compound 90, Pentyl 8-((2-(4-(N-(2-(dinonylamino)ethyl)-N-nonylglycyl)piperazin-1-yl)-2-oxoethyl)(tetradecyl)amino)octanoate] | 2.08E+07 | Lipid % change purity in EtOH, 25° C., 96 h [5]: 0.1%; Lipid % change purity in EtOH, 37° C., 96 h [5]: 9.6%
0.23 | 71.5 | 97.6 | 5.85 | – | CCCCCCCCCN(CCCCCCCCC)CCN(CCCCCCCCC)CC(=O)N1CCC(COC(=O)CN(CCCCCCCCC)CCCCCCCCC)C1 (centres unmarked) [Compound 102, (1-(N-(2-(Dinonylamino)ethyl)-N-nonylglycyl)pyrrolidin-3-yl)methyl dinonylglycinate] | 6.34E+06 | Lipid % change purity in EtOH, 25° C., 96 h [5]: 14.8%; Lipid % change purity in EtOH, 37° C., 96 h [5]: 31.5%
0.22 | 73.5 | 97.1 | 6.14 | 46.37 | CCCCCCCCCN(CCCCCCCCC)CC(=O)N1CCN(C(=O)CN(CCCCCCCCC)CCCCCCCCC)CC1 [Compound 112, 1,1′-(piperazine-1,4-diyl)bis(2-(dinonylamino)ethan-1-one)] | 1.78E+04 | –
0.20 | 82.3 | 97.8 | 6.7 | 55.92 | CCCCCC/C=C\COC(=O)CCCN(CCCCCCCCCCCCCC)CC(=O)N1CCN(C(=O)CN(CCCCCCCCC)CCN(CCCCCCCCC)CCCCCCCCC)CC1 [Compound 118, (Z)-Non-2-en-1-yl 4-((2-(4-(N-(2-(dinonylamino)ethyl)-N-nonylglycyl)piperazin-1-yl)-2-oxoethyl)(tetradecyl)amino)butanoate] | 1.64E+08 | –
– | – | – | 6.51 | 3.75 | CCCCCCCCCCCCCCN(CCCCCCCCCCCC(=O)OC)CCC1CCCN(C(=O)CN(CCCCCCCCC)CCN(CCCCCCCCC)CCCCCCCCC)C1 (centres unmarked) [Compound 123, Methyl 12-((2-(1-(N-(2-(dinonylamino)ethyl)-N-nonylglycyl)piperidin-3-yl)ethyl)(tetradecyl)amino)dodecanoate] | 5.84E+07 | –
– | – | – | 6.89 | 2.74 | CCCCCCCCCCCCCCN(CCCCCC(=O)OCCCCCCC)CCC1CCN(C(=O)CN(CCCCCCCCC)CCN(CCCCCCCCC)CCCCCCCCC)C1 (centres unmarked) [Compound 125, Heptyl 6-((2-(1-(N-(2-(dinonylamino)ethyl)-N-nonylglycyl)pyrrolidin-3-yl)ethyl)(tetradecyl)amino)hexanoate] | 7.89E+06 | –
– | – | – | 5.10 | 57.89 | CCCCCCCCCN(CCCCCCCCC)CCN(CCCCCCCCC)CC(=O)OCCOC(=O)CN(CCCCCCCCC)CCCCCCCCC [Compound 150, 2-((N-(2-(Dinonylamino)ethyl)-N-nonylglycyl)oxy)ethyl dinonylglycinate] | 2.29E+05 | –
– | – | – | – | – | CCCCCCCCCN(CCCCCCCCC)CCN(CCCCCCCCC)CC(=O)N(C)CCCCN(C)C(=O)CN(CCCCCCCCC)CCCCCCCCC [Compound 159, 2-(dinonylamino)-N-(4-(2-((2-(dinonylamino)ethyl)(nonyl)amino)-N-methylacetamido)butyl)-N-methylacetamide] | – | PDI [3, 9]: 0.12; Size (nm) [3, 9]: 76.5 nm; EE (%) [4, 9]: 92.9%; AUC (hEPO expression [7]): 6.56e+07 pg·h/mL
